Test system: HBV (encapsidated HBV DNA, HepG2.2.15 cells)
Experiment: HBV replication inhibition assay, BDNA assay in HepG2.2.15 cells
Type: cell-based
Conditions: Activity in BDNA-assay
In short: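 Encapsidated HBV DNA in DNase-treated, proteinase K-lysed supernatant was measured by branched DNA after 6 days' compound exposure, refreshed on day 3, of HepG2.2.15 cells in 0.5% DMSO. Signals normalized to DMSO-treated wells; EC50 from nonlinear regression of inhibition against log concentration.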

First: CN1CC(CNCC(F)F)Cn2nc3c(c2C1=O)CN(C(=O)Nc1cc(Br)c(F)cc1F)CC3 (single isomer, unassigned) [Compound 125_E2, (S*)—N-(5-bromo-2,4-difluorophenyl)-8-(((2,2-difluoroethyl)amino)methyl)-10-methyl-11-oxo-1,3,4,7,8,9,10,11-octahydro-2H-pyrido[4′,3′:3,4]pyrazolo[1,5-a][1,4]diazepine-2-carboxamide]
Second: CN1CC(CNCC(F)F)Cn2nc3c(c2C1=O)CN(C(=O)Nc1cc(Cl)c(F)cc1F)CC3 (single isomer, unassigned) [Compound 126_E2, (S*)—N-(5-chloro-2,4-difluorophenyl)-8-(((2,2-difluoroethyl)amino)methyl)-10-methyl-11-oxo-1,3,4,7,8,9,10,11-octahydro-2H-pyrido[4′,3′:3,4]pyrazolo[1,5-a][1,4]diazepine-2-carboxamide]
The EC50 of the first is lower: 1 to 100 nM for the first, 100 to 500 nM for the second. The first is the more potent here.

Compared with `CN1CC(CNCC(F)F)Cn2nc3c(c2C1=O)CN(C(=O)Nc1ccc(F)c(C#N)c1F)CC3` (single isomer, unassigned) [Compound 127_E1, (R*)—N-(3-cyano-2,4-difluorophenyl)-8-(((2,2-difluoroethyl)amino)methyl)-10-methyl-11-oxo-1,3,4,7,8,9,10,11-octahydro-2H-pyrido[4′,3′:3,4]pyrazolo[1,5-a][1,4]diazepine-2-carboxamide], `CN1CC(CNCC(F)F)Cn2nc3c(c2C1=O)CN(C(=O)Nc1ccc(F)c(Cl)c1F)CC3` (single isomer, unassigned) [Compound 128_E1, (R*)—N-(3-chloro-2,4-difluorophenyl)-8-(((2,2-difluoroethyl)amino)methyl)-10-methyl-11-oxo-1,3,4,7,8,9,10,11-octahydro-2H-pyrido[4′,3′:3,4]pyrazolo[1,5-a][1,4]diazepine-2-carboxamide] is lower in EC50: 500 to 1000 nM for the first, 100 to 500 nM for the second.

`CN1CC(CNCC(F)F)Cn2nc3c(c2C1=O)CN(C(=O)Nc1ccc(F)c(C#N)c1F)CC3` (single isomer, unassigned) [Compound 127_E2, (S*)—N-(3-cyano-2,4-difluorophenyl)-8-(((2,2-difluoroethyl)amino)methyl)-10-methyl-11-oxo-1,3,4,7,8,9,10,11-octahydro-2H-pyrido[4′,3′:3,4]pyrazolo[1,5-a][1,4]diazepine-2-carboxamide] and `CN1CC(CNCC(F)F)Cn2nc3c(c2C1=O)CN(C(=O)Nc1ccc(F)c(Cl)c1F)CC3` (single isomer, unassigned) [Compound 128_E2, (S*)—N-(3-chloro-2,4-difluorophenyl)-8-(((2,2-difluoroethyl)amino)methyl)-10-methyl-11-oxo-1,3,4,7,8,9,10,11-octahydro-2H-pyrido[4′,3′:3,4]pyrazolo[1,5-a][1,4]diazepine-2-carboxamide] fall in the same range of EC50: 1 to 100 nM for the first, 1 to 100 nM for the second.

`CN1CC(CNCC(F)F)Cn2nc3c(c2C1=O)CN(C(=O)Nc1ccc(F)c(Br)c1F)CC3` (single isomer, unassigned) [Compound 129_E1, (R*)—N-(3-bromo-2,4-difluorophenyl)-8-(((2,2-difluoroethyl)amino)methyl)-10-methyl-11-oxo-1,3,4,7,8,9,10,11-octahydro-2H-pyrido[4′,3′:3,4]pyrazolo[1,5-a][1,4]diazepine-2-carboxamide] and `CN1CC(CNCC(F)F)Cn2nc3c(c2C1=O)CN(C(=O)Nc1ccc(F)c(C(F)(F)F)c1F)CC3` (single isomer, unassigned) [Compound 131_E2, (S*)—N-(2,4-difluoro-3-(trifluoromethyl)phenyl)-8-(((2,2-difluoroethyl)amino)methyl)-10-methyl-11-oxo-1,3,4,7,8,9,10,11-octahydro-2H-pyrido[4′,3′:3,4]pyrazolo[1,5-a][1,4]diazepine-2-carboxamide] fall in the same range of EC50: 100 to 500 nM for the first, 100 to 500 nM for the second.

`CN1CC(CNCC(F)F)Cn2nc3c(c2C1=O)CN(C(=O)Nc1ccc(F)c(Br)c1F)CC3` (single isomer, unassigned) [Compound 129_E2, (S*)—N-(3-bromo-2,4-difluorophenyl)-8-(((2,2-difluoroethyl)amino)methyl)-10-methyl-11-oxo-1,3,4,7,8,9,10,11-octahydro-2H-pyrido[4′,3′:3,4]pyrazolo[1,5-a][1,4]diazepine-2-carboxamide] and `CN1CC(CNCC(F)F)Cn2nc3c(c2C1=O)CN(C(=O)Nc1ccc(F)c(Br)c1)CC3` (single isomer, unassigned) [Compound 130_E2, (S*)—N-(3-bromo-4-fluorophenyl)-8-(((2,2-difluoroethyl)amino)methyl)-10-methyl-11-oxo-1,3,4,7,8,9,10,11-octahydro-2H-pyrido[4′,3′:3,4]pyrazolo[1,5-a][1,4]diazepine-2-carboxamide] fall in the same range of EC50: 1 to 100 nM for the first, 1 to 100 nM for the second.

`C[C@@H]1Cc2nn3c(c2CN1C(=O)Nc1ccc(F)c(C(F)(F)F)c1)C(=O)N(C)CC(F)(CO)C3` (single isomer, unassigned) [Compound 133_D2, (3R,8S*)-8-fluoro-N-(4-fluoro-3-(trifluoromethyl)phenyl)-8-(hydroxymethyl)-3,10-dimethyl-11-oxo-1,3,4,7,8,9,10,11-octahydro-2H-pyrido[4′,3′:3,4]pyrazolo[1,5-a][1,4]diazepine-2-carboxamide_D2] and `C[C@@H]1Cc2nn3c(c2CN1C(=O)Nc1ccc(F)c(C#N)c1)C(=O)N(C)CC(F)C3` (single isomer, unassigned) [Compound 137_D2, (3R,8S*)-N-(3-Cyano-4-fluorophenyl)-8-fluoro-3,10-dimethyl-11-oxo-1,3,4,7,8,9,10,11-octahydro-2H-pyrido[4′,3′:3,4]pyrazolo[1,5-a][1,4]diazepine-2-carboxamide] fall in the same range of EC50: 1 to 100 nM for the first, 1 to 100 nM for the second.

Same assay, conditions: Hepatitis B virus, HepG2.2.15, Activity in BDNA-assay

`CN1CC(CNCC(F)F)Cn2nc3c(c2C1=O)CN(C(=O)Nc1cc(Cl)c(F)cc1F)CC3` (single isomer, unassigned) [Compound 126_E1, (R*)—N-(5-chloro-2,4-difluorophenyl)-8-(((2,2-difluoroethyl)amino)methyl)-10-methyl-11-oxo-1,3,4,7,8,9,10,11-octahydro-2H-pyrido[4′,3′:3,4]pyrazolo[1,5-a][1,4]diazepine-2-carboxamide] and `CN1CC(CNCC(F)F)Cn2nc3c(c2C1=O)CN(C(=O)Nc1ccc(F)c(C(F)(F)F)c1F)CC3` (single isomer, unassigned) [Compound 131_E1, (R*)—N-(2,4-difluoro-3-(trifluoromethyl)phenyl)-8-(((2,2-difluoroethyl)amino)methyl)-10-methyl-11-oxo-1,3,4,7,8,9,10,11-octahydro-2H-pyrido[4′,3′:3,4]pyrazolo[1,5-a][1,4]diazepine-2-carboxamide] fall in the same range of EC50: 100 to 500 nM for the first, 100 to 500 nM for the second.

`CN1CC(CNCC(F)F)Cn2nc3c(c2C1=O)CN(C(=O)Nc1ccc(F)c(Br)c1)CC3` (single isomer, unassigned) [Compound 130_E1, (R*)—N-(3-bromo-4-fluorophenyl)-8-(((2,2-difluoroethyl)amino)methyl)-10-methyl-11-oxo-1,3,4,7,8,9,10,11-octahydro-2H-pyrido[4′,3′:3,4]pyrazolo[1,5-a][1,4]diazepine-2-carboxamide] and `CN1CC(F)Cn2nc3c(c2C1=O)CN(C(=O)Nc1ccc(F)c(Cl)c1)CC3` (centres unmarked) [Compound 006, N-(3-chloro-4-fluorophenyl)-8-fluoro-10-methyl-11-oxo-1,3,4,7,8,9,10,11-octahydro-2H-pyrido[4′,3′:3,4]pyrazolo[1,5-a][1,4]diazepine-2-carboxamide] fall in the same range of EC50: 1 to 100 nM for the first, 1 to 100 nM for the second.

`C[C@@H]1Cc2nn3c(c2CN1C(=O)Nc1ccc(F)c(C(F)(F)F)c1)C(=O)N(C)CC(F)(CO)C3` (single isomer, unassigned) [Compound 133_D1, (3R,8R*)-8-fluoro-N-(4-fluoro-3-(trifluoromethyl)phenyl)-8-(hydroxymethyl)-3,10-dimethyl-11-oxo-1,3,4,7,8,9,10,11-octahydro-2H-pyrido[4′,3′:3,4]pyrazolo[1,5-a][1,4]diazepine-2-carboxamide_D1] and `C[C@@H]1Cc2nn3c(c2CN1C(=O)Nc1ccc(F)c(C(F)(F)F)c1)C(=O)N(C)CC(F)C3` (single isomer, unassigned) [Compound 138, (3R,8R*)-8-fluoro-N-(4-fluoro-3-(trifluoromethyl)phenyl)-3,10-dimethyl-11-oxo-1,3,4,7,8,9,10,11-octahydro-2H-pyrido[4′,3′:3,4]pyrazolo[1,5-a][1,4]diazepine-2-carboxamide] fall in the same range of EC50: 1 to 100 nM for the first, 1 to 100 nM for the second.

`C[C@@H]1Cc2nn3c(c2CN1C(=O)Nc1ccc(F)c(C#N)c1)C(=O)N(C)CC(F)C3` (single isomer, unassigned) [Compound 137_D1, (3R,8R*)—N-(3-cyano-4-fluorophenyl)-8-fluoro-3,10-dimethyl-11-oxo-1,3,4,7,8,9,10,11-octahydro-2H-pyrido[4′,3′:3,4]pyrazolo[1,5-a][1,4]diazepine-2-carboxamide_D1] and `CN1CC(O)Cn2nc3c(c2C1=O)CN(C(=O)Nc1ccc(F)c(Cl)c1)CC3` (centres unmarked) [Compound 004, N-(3-chloro-4-fluorophenyl)-8-hydroxy-10-methyl-11-oxo-1,3,4,7,8,9,10,11-octahydro-2H-pyrido[4′,3′:3,4]pyrazolo[1,5-a][1,4]diazepine-2-carboxamide] fall in the same range of EC50: 1 to 100 nM for the first, 1 to 100 nM for the second.

`C=C1CN(C)C(=O)c2c3c(nn2C1)CCN(C(=O)Nc1ccc(F)c(Cl)c1)C3` [Compound 001, N-(3-chloro-4-fluorophenyl)-10-methyl-8-methylene-11-oxo-1,3,4,7,8,9,10,11-octahydro-2H-pyrido[4′,3′:3,4]pyrazolo[1,5-a][1,4]diazepine-2-carboxamide] and `CN1CC(F)(F)Cn2nc3c(c2C1=O)CN(C(=O)Nc1ccc(F)c(Cl)c1)CC3` [Compound 005, N-(3-chloro-4-fluorophenyl)-8,8-difluoro-10-methyl-11-oxo-1,3,4,7,8,9,10,11-octahydro-2H-pyrido[4′,3′:3,4]pyrazolo[1,5-a][1,4]diazepine-2-carboxamide] fall in the same range of EC50: 1 to 100 nM for the first, 1 to 100 nM for the second.

Molecule `CN1CC(O)(CO)Cn2nc3c(c2C1=O)CN(C(=O)Nc1ccc(F)c(Cl)c1)CC3` (centres unmarked) [Compound 003] has an EC50 of 500 to 1000 nM.

From patent US10975077B2 (Novira Therapeutics, Inc., priority 2016, dated 2021)
